Measurements reported in paper PMC2365111, “Cytotoxicity of Poly(Phenolic)Sulfonates and Their Sodium Salts in L1210 Lymphoid Leukemia Cells” (Metal-Based Drugs, 1998).

Key:
[1] = tested on: Thymidine diphosphate kinase; assay: TDP kinase activity, L1210; format: biochemical, mouse; conditions: 60 min, N=6
From the text: (§1) CYTOTOXlCITY OF POLY(PHENOLIC)SULFONATES AND THEIR SODIUM SALTS IN L1210 LYMPHOID LEUKEMIA CELLS Fei Wang, Amy E. Warren, Cheryl R. Barnes and Iris H. Hall* Division of Medicinal Chemistry and Natural Products University of North Carolina Chapel Hill, N.C. […] Because ofthese properties it was surmised that these poly(phenolic)sulfonated compounds may have antineoplastic activity. METHODS Source of Compounds Test compounds were supplied by GeneLabs, Inc. [Redwood City, CA [Table 1]. Radioisotopes were obtained from New England Nuclear [Dupont, Boston, MA]. Substrates and co-factors were purchased om Sigma Chemical Co., [St Louis, MO]. Pentosan sulfate and other antineoplastic standards were obtained from Sigma Chemical Co. Tumor lines were obtained from American Type Culture Collection [Rockville, MD]. 147 Vol. 5, No. 3, 1998 Cytotoxicity ofSodium Poly(Phenolic)Sulfonates in L1210 Lymphoid Leukemia Cells Table 1 Structures of Poly(phenolic)sulfonate Compounds O2R" n Compound R' R" n MW # G1-2041 H OH 8 1489.46 G1-2029 H OH 6 1117.09 G1-2030 H OH 4 744.73 GI-2021 CH3 ONa 8 1777.5 G1-2057 CH3 ONa 4 888.75 GI-2158 CH3 ONa 6 1333.13 GI-2063 OCH3 ONa 8 2001.65 G1-2042 OAc ONa 8 2017.73 Cytotoxicity Poly(phenolic)sulfonates were tested for cytotoxic activity by homogenizing drug in 0.05% Tween 80/H20 to give a mg/ml stock concentration. These solutions were sterilized by passing them through an acrodisc ([…]). The following cell lines were maintained by literature techniques: murine L1210 lymphoid leukemia, P-388 lymphocytic leukemia, rat UMR 106 osteosarcoma, human Tmolt3 acute lymphoblastic T cell leukemia, HUT-8 lymphoma, HeLa-S suspended cervical carcinoma, HeLa solid cervical carcinoma, KB epidermoid nasopharynx, A431 epidermoid carcinoma, colorectal adenocarcinoma SW480, HCT-8 ileocecal adenocarcinoma, lung bronchogenic MB-9812, A549 lung carcinoma, and glioma HS683. Geran et al.'s protocol was used to assess the cytotoxicity of the compounds and standards in each cell line. Cell numbers were determined by the trypan blue exclusion technique. Solid tumor cytotoxicity was determined by Leibovitz et al. 's method utilizing crystal violeeOH and read at 562 nm (Molecular Devices). Values for cytotoxicity were expressed as EDs0 g/ml, i.e. the concentration ofthe compound inhibiting 50% ofcell growth. A value of less than 4 µg/ml was required for significant activity ofgrowth inhibition. Incorporation Studies Incorporation of labeled precursors into 3H-DNA, 3H -RNA and 3H -protein for 10 L1210 cells was obtained. The concentration response for inhibition of DNA, RNA and protein synthesis of the compounds at 25, 50 and 100 l.tM was determined for 60 min incubations. Incorporation of 14C -glycine (53.0 mCi/mmol) into purines was obtained by the method of Cadman et al.[12]. Incorporation of 4C- formate (53.0 mCi/mmol) into pyrimidines was determined by the method of Christopherson et al.[13]. Enzyme Assays Inhibition of various enzyme activities was performed by first preparing the appropriate L1210 cell homogenates or subcellular fractions, then adding the drug to be tested during the enzyme assay. For the concentration response studies, inhibition of enzyme activity was determined at 25, 50 and 100 l.tM of compounds G1-2021, G1-2029, GI-2041 and G1-2063 after 60 min incubations. DNA polymerase Ot activity was determined in cytoplasmic extracts isolated by Eichler et aL's method. The DNA polymerase assay was described by Sedwick et al.[15] using 3H-TTP. Messenger-, ribosomal- and transfer-RNA polymerase enzymes were isolated with different concentrations of ammonium sulfate; individual RNA polymerase activities were determined using 3H -UTP 16,17]. Ribonucleoside reductase activity was measured using 4C -CDP with dithioerythritol. The deoxyribonucleotides 4C -dCDP were separated from the ribonucleotides by TLC on PEI plates. […]

IMP dehydrogenase = IMP dehydrogenase activity, L1210; format: biochemical, mouse; conditions: 60 min, N=6
From the text: as §1, with “Enzyme Assays Inhibition of various enzyme activities was performed by first preparing the appropriate L1210 cell homogenates or subcellular fractions, then adding the drug to be tested during the enzyme assay. For the concentration response studies, inhibition of enzyme activity was determined at 25, 50 and 100 l.tM of compounds G1-2021, G1-2029, GI-2041 and G1-2063 after 60 min incubations.” left out, “The DNA polymerase assay was described by Sedwick et al.[15] using 3H-TTP.” left out, “dithioerythritol.” for “dithioerythritol. The deoxyribonucleotides 4C -dCDP were separated from the ribonucleotides by TLC on PEI plates.”

L1210 d[NTP] pool levels = assay: Deoxyribonucleoside triphosphate pool levels; format: cell-based, mouse; conditions: 100 μM, 60 min, N=6
From the text: as §1

Thymidylate synthetase = biological target: T1, Thymidylate synthetase (Mus musculus, UniProt P07607); assay: Thymidylate synthetase activity, L1210; format: biochemical; conditions: 60 min, N=6
T1 construct: preparing the appropriate L1210 cell homogenates or subcellular fractions; endogenous in cells; host or cells: L1210 murine lymphoid leukemia cells, homogenate or subcellular fraction
From the text: as §1

[2] = tested on: L1210 de novo pyrimidine synthesis; assay: 14C-formate incorporation into pyrimidines; format: cell-based, mouse; conditions: 60 min, N=6
From the text: as §1

tRNA polymerase = assay: Transfer-RNA polymerase activity, L1210; format: biochemical, mouse; conditions: 60 min, N=6
From the text: as §1

L1210 DNA synthesis = assay: Incorporation of labeled precursor into DNA; format: cell-based, mouse; conditions: 60 min, N=6
From the text: as §1

[3] = tested on: L1210 de novo purine synthesis; assay: 14C-glycine incorporation into purines; format: cell-based, mouse; conditions: 60 min, N=6
From the text: as §1

mRNA polymerase = biological target: T2, mRNA polymerase (Mus musculus, UniProt P08775); assay: Messenger-RNA polymerase activity, L1210; format: biochemical; conditions: 100 μM, 60 min, N=6
T2 construct: Messenger-, ribosomal- and transfer-RNA polymerase enzymes were isolated with different concentrations of ammonium sulfate; endogenous in cells; host or cells: L1210 murine lymphoid leukemia cells, ammonium sulfate fraction
From the text: CYTOTOXlCITY OF POLY(PHENOLIC)SULFONATES AND THEIR SODIUM SALTS IN L1210 LYMPHOID LEUKEMIA CELLS Fei Wang, Amy E. Warren, Cheryl R. Barnes and Iris H. Hall* Division of Medicinal Chemistry and Natural Products University of North Carolina Chapel Hill, N.C. […] Because ofthese properties it was surmised that these poly(phenolic)sulfonated compounds may have antineoplastic activity. METHODS Source of Compounds Test compounds were supplied by GeneLabs, Inc. [Redwood City, CA [Table 1]. Radioisotopes were obtained from New England Nuclear [Dupont, Boston, MA]. Substrates and co-factors were purchased om Sigma Chemical Co., [St Louis, MO]. Pentosan sulfate and other antineoplastic standards were obtained from Sigma Chemical Co. Tumor lines were obtained from American Type Culture Collection [Rockville, MD]. […] Cell numbers were determined by the trypan blue exclusion technique. Solid tumor cytotoxicity was determined by Leibovitz et al. 's method utilizing crystal violeeOH and read at 562 nm (Molecular Devices). Values for cytotoxicity were expressed as EDs0 g/ml, i.e. the concentration ofthe compound inhibiting 50% ofcell growth. […] Incorporation of 4C- formate (53.0 mCi/mmol) into pyrimidines was determined by the method of Christopherson et al.[13]. […] DNA polymerase Ot activity was determined in cytoplasmic extracts isolated by Eichler et aL's method. […] Messenger-, ribosomal- and transfer-RNA polymerase enzymes were isolated with different concentrations of ammonium sulfate; individual RNA polymerase activities were determined using 3H -UTP 16,17]. Ribonucleoside reductase activity was measured using 4C -CDP with dithioerythritol. […]

L1210 RNA synthesis = assay: Incorporation of labeled precursor into RNA; format: cell-based, mouse; conditions: 60 min, N=6
From the text: as §1, with “Enzyme Assays Inhibition of various enzyme activities was performed by first preparing the appropriate L1210 cell homogenates or subcellular fractions, then adding the drug to be tested during the enzyme assay. For the concentration response studies, inhibition of enzyme activity was determined at 25, 50 and 100 l.tM of compounds G1-2021, G1-2029, GI-2041 and G1-2063 after 60 min incubations.” left out, “The DNA polymerase assay was described by Sedwick et al.[15] using 3H-TTP.” left out, “dithioerythritol.” for “dithioerythritol. The deoxyribonucleotides 4C -dCDP were separated from the ribonucleotides by TLC on PEI plates.”

[4] = biological target: T3, Thymidine monophosphate kinase (Mus musculus, UniProt P97930); assay: TMP kinase activity, L1210; format: biochemical; conditions: 60 min, N=6
T3 construct: preparing the appropriate L1210 cell homogenates or subcellular fractions; endogenous in cells; host or cells: L1210 murine lymphoid leukemia cells, homogenate or subcellular fraction
T3 sequence (P97930 1-212): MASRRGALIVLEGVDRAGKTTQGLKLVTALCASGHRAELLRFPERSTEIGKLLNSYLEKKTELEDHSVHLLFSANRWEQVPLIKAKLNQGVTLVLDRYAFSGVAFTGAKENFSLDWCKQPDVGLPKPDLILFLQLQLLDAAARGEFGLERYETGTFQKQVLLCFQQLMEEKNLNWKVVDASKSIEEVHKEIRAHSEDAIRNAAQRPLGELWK
From the text: as §1

T1 sequence (P07607 whole entry): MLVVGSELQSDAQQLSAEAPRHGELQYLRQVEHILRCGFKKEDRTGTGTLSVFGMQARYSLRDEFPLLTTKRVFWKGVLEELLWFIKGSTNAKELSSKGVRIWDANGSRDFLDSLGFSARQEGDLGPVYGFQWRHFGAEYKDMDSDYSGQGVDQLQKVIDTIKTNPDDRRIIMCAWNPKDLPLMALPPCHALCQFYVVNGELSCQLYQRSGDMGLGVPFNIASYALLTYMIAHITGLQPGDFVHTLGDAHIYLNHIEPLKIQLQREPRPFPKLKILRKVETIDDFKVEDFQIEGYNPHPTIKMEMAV

Structure (SMILES) | Thymidine diphosphate kinase ([1]; 25 μM) | Thymidine diphosphate kinase ([1]; 100 μM) | IMP dehydrogenase (IMP dehydrogenase; 25 μM) | d(ATP) (L1210 d[NTP] pool levels) | d(TTP) (L1210 d[NTP] pool levels) | Thymidylate synthetase (Thymidylate synthetase; 25 μM) | Thymidylate synthetase (Thymidylate synthetase; 50 μM) | Pyrimidine de novo synthesis ([2]; 25 μM) | Pyrimidine de novo synthesis ([2]; 50 μM) | tRNA polymerase (tRNA polymerase; 25 μM) | DNA synthesis (L1210 DNA synthesis; 50 μM) | Purine de novo synthesis ([3]; 25 μM) | mRNA polymerase (mRNA polymerase) | Thymidine monophosphate kinase ([4]; 25 μM) | Thymidine monophosphate kinase ([4]; 50 μM) | further results
O=S(=O)(O)c1cc2c(O)c(c1)Cc1cc(S(=O)(=O)O)cc(c1O)Cc1cc(S(=O)(=O)O)cc(c1O)Cc1cc(S(=O)(=O)O)cc(c1O)Cc1cc(S(=O)(=O)O)cc(c1O)Cc1cc(S(=O)(=O)O)cc(c1O)C2 [GI-2029] | 57+3% of Control | 27+3% of Control | 270+5% of Control | 68+5% of Control | 98+5% of Control | 92+5% of Control | 89+6% of Control | 99+6% of Control | 96+ 5% of Control | 103+5% of Control | 78+3% of Control | 130+6% of Control | 50+3% of Control | 118+6% of Control | 50+5% of Control | IMP dehydrogenase (IMP dehydrogenase; 50 μM): 184+6% of Control; d(CTP) (L1210 d[NTP] pool levels): 96+ 5% of Control; Pyrimidine de novo synthesis ([2]; 100 μM): 93+7% of Control; tRNA polymerase (tRNA polymerase; 50 μM): 98+5% of Control; Purine de novo synthesis ([3]; 50 μM): 97+6% of Control; RNA synthesis (L1210 RNA synthesis; 50 μM): 91+5% of Control
O=S(=O)(O)c1cc2c(O)c(c1)Cc1cc(S(=O)(=O)O)cc(c1O)Cc1cc(S(=O)(=O)O)cc(c1O)Cc1cc(S(=O)(=O)O)cc(c1O)Cc1cc(S(=O)(=O)O)cc(c1O)Cc1cc(S(=O)(=O)O)cc(c1O)Cc1cc(S(=O)(=O)O)cc(c1O)Cc1cc(S(=O)(=O)O)cc(c1O)C2 [GI-2041] | 89+5% of Control | 54+3% of Control | 131+6% of Control | 62+ 5% of Control | 89+6% of Control | 105+5% of Control | 103+6% of Control | 112+6% of Control | 97+5% of Control | 108+6% of Control | 84+5% of Control | 85+5% of Control | 47+3% of Control | 80+5% of Control | 41+3% of Control | Thymidine diphosphate kinase ([1]; 50 μM): 64+5% of Control; IMP dehydrogenase (IMP dehydrogenase; 100 μM): 70+4% of Control; d(GTP) (L1210 d[NTP] pool levels): 74+5% of Control; Thymidylate synthetase (Thymidylate synthetase; 100 μM): 92+5% of Control; DNA synthesis (L1210 DNA synthesis; 25 μM): 98+6% of Control; DNA synthesis (L1210 DNA synthesis; 100 μM): 33+5% of Control; Purine de novo synthesis ([3]; 100 μM): 54+3% of Control; RNA synthesis (L1210 RNA synthesis; 25 μM): 130+5% of Control
